Measured values taken from patent publication US20260215428A1, “WEED CONTROL METHOD” (SYNGENTA CROP PROTECTION AG, priority 2023, published 2026).

Experiments:
Lolium multiflorum = assay: Glasshouse post-emergence test, visual damage, Table B1-1; type: in vivo
Procedure: Seeds of a variety of test species are sown in standard soil in pots. For each treatment, three replicate pots containing 10-15 plants per one-inch pot were sprayed at the 2-3 leaf stage. Clethodim and Compound (Ic) were each applied at 15, 30, 60 and 120 g ai/ha. The test plants are then grown in a glasshouse under controlled conditions in a glasshouse (at 24/16° C., day/night; 14 hours light; 65% humidity) and watered twice daily. […]

Volunteer corn = assay: 26 field trials, control of volunteer corn, Table B1-6; type: in vivo
[1] = biotype CC2027 (homozygous), 15 g/ha, 14 days after application
[2] = biotype CC2027 (homozygous), 30 g/ha, 14 days after application
[3] = biotype CC2027 (homozygous), 60 g/ha, 14 days after application
[4] = biotype CC2027 (homozygous), 120 g/ha, 14 days after application
[5] = biotype GG2078 (homozygous), 15 g/ha, 14 days after application
[6] = biotype GG2078 (homozygous), 30 g/ha, 14 days after application
[7] = biotype GG2078 (homozygous), 60 g/ha, 14 days after application
[8] = biotype GG2078 (homozygous), 120 g/ha, 14 days after application
[9] = biotype LL1781 (homozygous), 15 g/ha, 14 days after application
[10] = biotype LL1781 (homozygous), 30 g/ha, 14 days after application
[11] = biotype LL1781 (homozygous), 60 g/ha, 14 days after application
[12] = biotype LL1781 (homozygous), 120 g/ha, 14 days after application
[13] = biotype NN2041 (homozygous), 15 g/ha, 14 days after application
[14] = biotype NN2041 (homozygous), 30 g/ha, 14 days after application
[15] = biotype NN2041 (homozygous), 60 g/ha, 14 days after application
[16] = biotype NN2041 (homozygous), 120 g/ha, 14 days after application
[17] = biotype RR2088 (homozygous), 15 g/ha, 14 days after application
[18] = biotype RR2088 (homozygous), 30 g/ha, 14 days after application
[19] = biotype RR2088 (homozygous), 60 g/ha, 14 days after application
[20] = biotype RR2088 (homozygous), 120 g/ha, 14 days after application
[21] = biotype SS1999 (homozygous), 15 g/ha, 21 DAA
[22] = biotype SS1999 (homozygous), 30 g/ha, 21 DAA
[23] = biotype SS1999 (homozygous), 60 g/ha, 21 DAA
[24] = biotype SS1999 (homozygous), 120 g/ha, 21 DAA
[25] = biotype Sensitive, 15 g/ha, 14 days after application
[26] = biotype Sensitive, 30 g/ha, 14 days after application
[27] = biotype Sensitive, 60 g/ha, 14 days after application
[28] = biotype Sensitive, 120 g/ha, 14 days after application

SMILES	visual damage (Lolium multiflorum; [1]) [%]	visual damage (Lolium multiflorum; [2]) [%]	visual damage (Lolium multiflorum; [3]) [%]	visual damage (Lolium multiflorum; [4]) [%]	visual damage (Lolium multiflorum; [5]) [%]	visual damage (Lolium multiflorum; [6]) [%]	visual damage (Lolium multiflorum; [7]) [%]	visual damage (Lolium multiflorum; [8]) [%]	visual damage (Lolium multiflorum; [9]) [%]	visual damage (Lolium multiflorum; [10]) [%]	visual damage (Lolium multiflorum; [11]) [%]	visual damage (Lolium multiflorum; [12]) [%]	visual damage (Lolium multiflorum; [13]) [%]	visual damage (Lolium multiflorum; [14]) [%]	visual damage (Lolium multiflorum; [15]) [%]	visual damage (Lolium multiflorum; [16]) [%]	visual damage (Lolium multiflorum; [17]) [%]	visual damage (Lolium multiflorum; [18]) [%]	visual damage (Lolium multiflorum; [19]) [%]	visual damage (Lolium multiflorum; [20]) [%]	other results
CC#Cc1ccc(C2=C(OC(=O)OC)C3CCC(C3)C2=O)c(OC)c1 (stereo not drawn) [Compound Ic]	100	100	100	100	40	100	100	100	100	100	100	100	47	100	100	100	100	100	100	100	visual damage (Lolium multiflorum; [21]): 85%; visual damage (Lolium multiflorum; [22]): 100%; visual damage (Lolium multiflorum; [23]): 100%; visual damage (Lolium multiflorum; [24]): 100%; visual damage (Lolium multiflorum; [25]): 100%; visual damage (Lolium multiflorum; [26]): 100%; visual damage (Lolium multiflorum; [27]): 100%; visual damage (Lolium multiflorum; [28]): 100%; Control (14d) (Volunteer corn; 25 g/ha): 93%; Control (28d) (Volunteer corn; 25 g/ha): 99%; Control (14d) (Volunteer corn; 50 g/ha): 99%; Control (28d) (Volunteer corn; 50 g/ha): 100%; Control (14d) (Volunteer corn; 100 g/ha): 99%; Control (28d) (Volunteer corn; 100 g/ha): 100%; Control (14d) (Volunteer corn; 200 g/ha): 99%; Control (28d) (Volunteer corn; 200 g/ha): 100%
CCSC(C)CC1CC(=O)C(/C(CC)=N/OC/C=C/Cl)=C(O)C1 (stereo not drawn) [Clethodim, clethodim]	53	77	100	100	0	20	20	50	23	37	60	70	70	100	100	100	0	20	60	60	visual damage (Lolium multiflorum; [21]): 27%; visual damage (Lolium multiflorum; [22]): 98%; visual damage (Lolium multiflorum; [23]): 100%; visual damage (Lolium multiflorum; [24]): 100%; visual damage (Lolium multiflorum; [25]): 53%; visual damage (Lolium multiflorum; [26]): 73%; visual damage (Lolium multiflorum; [27]): 99%; visual damage (Lolium multiflorum; [28]): 100%; Control (14d) (Volunteer corn; 100 g/ha): 90%; Control (28d) (Volunteer corn; 100 g/ha): 96%
